Test [1] addresses T1, 5-HT1A serotonin receptor (Rattus norvegicus, UniProt P19327).
T1 construct: Hippocampal tissue is dissected and homogenized on ice; from tissue; host or cells: rat hippocampus (membrane homogenate)
T1 sequence (P19327 1-422): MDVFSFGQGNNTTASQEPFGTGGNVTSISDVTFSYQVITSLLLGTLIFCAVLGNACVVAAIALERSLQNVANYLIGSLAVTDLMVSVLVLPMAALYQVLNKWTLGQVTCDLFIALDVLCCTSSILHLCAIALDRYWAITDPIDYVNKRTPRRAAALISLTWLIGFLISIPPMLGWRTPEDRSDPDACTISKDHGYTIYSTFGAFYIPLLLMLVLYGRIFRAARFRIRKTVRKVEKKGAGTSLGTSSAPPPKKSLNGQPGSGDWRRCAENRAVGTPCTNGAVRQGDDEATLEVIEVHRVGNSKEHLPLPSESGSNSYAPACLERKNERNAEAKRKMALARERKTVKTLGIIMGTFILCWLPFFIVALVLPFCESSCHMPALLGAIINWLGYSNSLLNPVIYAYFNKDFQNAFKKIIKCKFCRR
Briefly: ex vivo inhibition of 5-HT1A serotonin receptor binding assay (3H-8-OH-DPAT, hippocampal tissue). Conditions: read-out: % Inhibition of 8-OH DPAT Binding at 1 μM. The method, then:
The assay is carried out as follows:
Several groups of rats (4-6 rats/group) are injected with test compound or the appropriate vehicle. Thirty minutes later, unless otherwise noted, rats are decapitated and their brains removed. Various brain regions are dissected and rapidly frozen and maintained at -70° C. until used.
The homogenate is then centrifuged at 20,000 rpm (RC5-B; 40,000 g) and the supernatant discarded. The pellet is resuspended in 40 vols of the same buffer and incubated at 37° C. for 10 minutes to aid in the removal of endogenous serotonin. The homogenate is then centrifuged (as above) and the supernatant discarded. The pellet is then resuspended in 100 vols of buffer B (50 mM Tris HCl, pH=7.7 containing 0.1% ascorbate, 10 μM pargyline and 4 mM CaCl2) and sonicated. An aliquot is taken for protein determination by the Lowry method and the remainder stored frozen at -70° C. until used.
The homogenate (50 μl; 0.4-0.6 mg protein/sample) is incubated with 100 μl (1.5-1.8 nM) ^3 H-8-hydroxy-2-(di-n-propylamino)tetraline in a final volume of 2 ml of buffer for 10 minutes at 37° C.
Specific binding obtained in vehicle-treated rats is compared to that obtained in animals receiving a single or various doses of test compound and expressed as percent of control.

Test [2] deals with limbic D-2 dopamine receptor (Rattus norvegicus, UniProt P61169). The test can be described thus: inhibition of limbic D-2 dopamine receptor binding (3H-spiroperidol), in vitro. Conditions: read-out: % Inhibition of H3-Spiroperidol Binding at 1 μM.
Experimental: The compounds of the invention are also studied for their ability to inhibit limbic D-2 dopamine receptor binding. This in vitro assay measures the ability of the compounds tested to bind to the dopamine receptor sites.
The test is carried out as follows:
Several rats are decapitated and the brains are rapidly removed. Limbic brain tissue (nucleus accumbens, septal area, olfactory tubercle) is dissected and homogenized on ice in 9 volumes of buffer (50 mM Tris-HCl, 120 mM NaCl, 5 mM KCl, 1 mM CaCl2, 1 mM MgCl2, 0.1% L-ascorbic acid, 10 μM pargyline HCl, pH 7.1) using a Polytron homogenizer at setting 5 for three 15-sec bursts. The homogenate is then diluted 4-fold with buffer and centrifuged at 30,000×g for 20 minutes, and the supernatant is discarded. The pellet is resuspended in the same volume of buffer and recentrifuged as before, again discarding the supernatant. This pellet is then resuspended in the same volume of buffer used in the homogenization, and the protein content of this preparation is assayed by the Lowry method. The homogenate is stored frozen at -70° C. until use.
Thirty μl of the homogenate (0.2-0.3 mg protein/sample) are incubated with 0.3 mM ^3 H-spiroperidol (New England Nuclear) and various concentrations of test drug in a final volume of 1 ml of the above buffer for 10 minutes in a 37° C. water bath. At the end of the incubation, 3 ml of cold 50 mM Tris-HCl, pH 7.7, are added to each tube, and the contents are rapidly vacuum-filtered through Whatman GF/B glass-fiber filters. The filters are then rapidly washed 3 times with 3 ml of the same buffer, placed in scintillation vials, and shaken for 15 minutes with 10 ml of Hydrofluor (National Diagnostics) scintillation cocktail. The vials are then counted in a Packard 460 CD scintillation counter.
Specific binding is defined as total binding less binding in the presence of 1 μM (+)butaclamol. Binding in the presence of various concentrations of test drug is expressed as a percent of specific binding when no drug is present. […] Ki (inhibition constant) for the test drug is then calculated by the formula: [formula]
For test [3] the following is noted: West German Patent Application No. 3,321,969A; cited from earlier work.
Test [4] has as its system 5-HT1A receptor. Conditions: literature, in words; cited from earlier work.
Setting [5] is: 1 μM, 3H-8-OH-DPAT, rat hippocampal tissue.

The source of these data is patent US4855430A, “Polycyclicamine with psychotropic activity” (American Home Products Corporation, priority 1987, dated 1989).

Structures can show the parent of a compound that is named as a salt. Where two headings read alike, the source gives them in different places.

Sequence of limbic D-2 dopamine receptor (P61169 whole entry): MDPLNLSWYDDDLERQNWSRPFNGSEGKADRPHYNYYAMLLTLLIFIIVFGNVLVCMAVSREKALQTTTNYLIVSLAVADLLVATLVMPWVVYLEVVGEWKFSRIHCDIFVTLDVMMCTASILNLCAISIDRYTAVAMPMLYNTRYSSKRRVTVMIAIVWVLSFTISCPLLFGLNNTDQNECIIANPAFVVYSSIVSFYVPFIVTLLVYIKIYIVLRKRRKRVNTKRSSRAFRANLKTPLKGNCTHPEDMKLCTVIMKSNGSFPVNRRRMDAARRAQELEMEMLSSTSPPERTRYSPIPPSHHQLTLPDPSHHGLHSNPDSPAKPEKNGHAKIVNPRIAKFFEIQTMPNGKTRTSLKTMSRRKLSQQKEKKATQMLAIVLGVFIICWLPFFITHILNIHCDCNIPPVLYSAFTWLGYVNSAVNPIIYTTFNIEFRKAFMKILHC

On to `O=C(CCCN1CC2C3C=CC(CCC3)C2C1)c1ccc(F)cc1` (centres unmarked) [Example 3, 1-(4-Fluorophenyl)-4-(3,3a,4,5,6,7,8,8a-octahydro-4,8-ethenocyclohepta[c]pyrrol-2(1H)-yl)-1-butanone, hydrochloride, hydrate], for which the inhibition (in general, the percentage by which the read-out fell short of the control) at 1 µM was 61% in test [1] and 100% in test [2].

Consider `C1=CC2C3CCC3C1C1CN(CCc3ccc4ccccc4n3)CC21` (centres unmarked) [Example 4, 2,3,3a,4,4a,5,6,6a,7,7a-Decahydro-2-[2-(2-quinolinyl)ethyl]-4,7-etheno-2H-cyclobut[f]isoindole, dihydrochloride, hydrate], for which the inhibition at 1 µM was found to be 97% in test [1] (setting [5]) and 17% in test [2].

With `C1=CC2C3CCC3C1C1CN(CCc3ccccn3)CC21` (centres unmarked) [Example 6, 2,3,3a,4,4a,5,6,6a,7,7a-Decahydro-2-[2-(2-pyridinyl)ethyl]-4,7-etheno-1H-cyclobut[f]isoindole, dihydrochloride, 1/4 hydrate], the inhibition at 1 µM in test [1] (setting [5]) stood at 89%; in test [2] it was 3%.

As for `C1=CC2C1C1C=CC2C2CN(CCc3ccc4ccccc4n3)CC12` (centres unmarked) [Example 7, 2,3,3a,4,4a,6a,6,7,7a-Octahydro-2-[2-(2-quinolinyl)ethyl]4,7-etheno-1H-cyclobut[f]isoindole, dihydrochloride, 11/4 hydrate], the inhibition at 1 µM in test [1] (setting [5]) worked out at 46%. In the case of `Clc1cccc(N2CCN(CCCN3CC4CCC(CC4)C3)CC2)c1` [Example 8, 3-[3-[4-(3-Chlorophenyl)-1-piperazinyl]propyl]-3-azabicyclo[3.2.2]nonane, dihydrochloride], the inhibition at 1 µM in test [1] is 82%; in test [2], 11%. As for `Clc1cccc(N2CCN(CCCN3CC4C5C=CC(C6CCC56)C4C3)CC2)c1` (centres unmarked) [Example 9, 2-[3-[4-(3-Chlorophenyl)-1-piperazinyl]propyl]-2,3,3a,4,4a,5,6,7,7a-decahydro-4,7-etheno-1H-cyclobut[f]isoindole, trihydrochloride, dihydrate], the inhibition at 1 µM in test [2] stood at 40%. For `O=C(CCCN1CC2C3C=CC(C4CC34)C2C1)c1ccc(F)cc1` (centres unmarked) [Example 10, 1-(4-Fluorophenyl)-4-(3,3a,4,4a,5,5a,6,6a-octahydro-4,6-ethenocycloprop[f]isoindole-2-(1H)-yl)-1-butanone, hydrochloride, sesquihydrate], in test [2], the inhibition at 1 µM turned out to be 93%. In the case of `c1ccc2nc(CCN3CC4CCC(CC4)C3)ccc2c1` [Example 12, 3-[2-(2-Quinolinyl)ethyl[-3-azabicyclo[3.2.2]nonane, dihydrochloride, dihydrate], the inhibition at 1 µM in test [1] is 30%. Regarding `COc1ccccc1N1CCN(CCCN2CC3CCC(CC3)C2)CC1` [Example 13, 3-[3-[4-(2-Methoxyphenyl)-1-piperazinyl]propyl]-3-azabicyclo[3.2.2]nonane, trihydrochloride, 3/4 hydrate], the inhibition at 1 µM in test [2] is 55%. Regarding `O=C1c2ccccc2S(=O)(=O)N1CCCCN1CCN(c2ncccn2)CC1` [TVX Q 7821, 2-[4-[4-(2-pyrimidinyl)-1-piperazinyl]butyl]-1,2-benzisothiazol-3-(2H)one1,1-dioxide hydrochloride], the antidepressant activity result in test [3] is “possess antidepressant activity”. The “binding at the 5-HT1A site” value in test [4] is “demonstrate binding at the 5-HT1A site”.

`O=C1CC2(CCCC2)CC(=O)N1CCCCN1CCN(c2ncccn2)CC1` [buspirone, 8-[4-[4-(2-pyrimidinyl)-1-piperazinyl]butyl]-8-azaspiro[4.5]decane-7,9-dione]: the “binding at the 5-HT1A site” value in test [4] is “demonstrate binding at the 5-HT1A site”. Regarding `CCCC(C)C1(CC)C(=O)NC(=O)NC1=O` (centres unmarked) [pentobarbital], in test [4], the “binding at the 5-HT1A site” value is “do not act via the 5-HT1A receptor”.
